Test results as given in patent US20180296507A1, “REDOX-ACTIVATED GLYCOCONJUGATED PROCHELATORS” (ARIZONA BOARD OF REGENTS ON BEHALF OF THE UNIVERSITY OF …, priority 2013, published 2018).
“And” between values parts separate entries of the source, which are not always exact repeats. Identical values can stand only once. “Also recorded” adds a separate entry of the source.

How the values were obtained:
intracellular iron [1] = assay: Calcein-based iron displacement assay in suspended Jurkat cells; format: cell-based
Description: In some embodiments, intracellular activation and iron chelation may be investigated using a calcein-based iron displacement assay. This assay may confirm the activation of the prochelators for iron scavenging, and may also indicate the timeframe for cellular entry and iron binding. […] Data such as this may be collected for particular glycoconjugates to assess the duration of uptake and in particular to determine differences among systems carrying different connectivity (e.g., linker, position of glucose substitution) between the sugar and the prochelator units.

intracellular iron [2] = assay: EPR experiments in whole leukemia cells; format: cell-based
Description: Chelators (e.g., TC1SH, TC2SH, TC3SH) are released upon reduction of the disulfide bond. The reduced species (e.g., TC1SH, TC2SH, TC3SH) are tridentate iron chelators forming complexes of 2:1 ligand-to-metal stoichiometry. Magnetic measurements and X-ray crystallographic data on the resulting iron complexes (see FIG. 4, BF4^− counterion not shown) indicate that these chelators stabilize iron centers as low-spin Fe(III) species. […] The present invention is not limited to chelators that stabilize iron centers as low-spin Fe(III) species.

CCD18-co cells = assay: MTT cytotoxicity assay in CCD18-co cells; format: cell-based, human; conditions: 72 h exposure, average ± SD of triplicate
Method: (§1) Cell culture. Caco-2 (ATCC® HTB-37™) colorectal adenocarcinoma and CCD-18Co (ATCC® CRL-1459™) normal colon fibroblasts were cultured under a 5% CO2 humidified atmosphere at 37° C. in Eagle's Minimal Essential Medium (EMEM) supplemented with 10% fetal bovine serum (FBS), glutamine (2 mM), sodium pyruvate (1 mM), sodium bicarbonate (1.5 g/L), penicillin (100 units/mL), streptomycin (100 μg/mL) and human holo-transferrin (1.25 μM (1 mg/10 mL) prior to use. Flow cytometric analysis was performed at the University of Arizona Cytometry Core Facility (Arizona Cancer Center/Arizona Research Laboratories) using a FACSCanto II flow cytometer (BD Biosciences, San Jose, Calif.) equipped with an air-cooled 15-mW argon ion laser tuned to 488 nm. List mode data files consisting of 10,000 events gated on FSC (forward scatter) vs SSC (side scatter) were acquired and analyzed using CellQuest PRO software (BD Biosciences, San Jose, Calif.). Appropriate electronic compensation was adjusted by acquiring cell populations stained with each dye/fluorophore individually, as well as an unstained control.
(§2) Cytotoxicity assays. The cytotoxicity of the prochelators were assessed using MTT (3-(4,5-dimethylthiazol-2-yl)-2,5-diphenyl-tetrazolium bromide) assays after 72-hour incubations (Table 2). In all cases, the prochelator conjugates are more toxic (lower IC50 values) in the malignant Caco-2 cells than in the normal CCD18-co cells.
(§3) MTT (3-(4,5-dimethylthiazol-2-yl)-2,5-diphenyltetrazolium bromide) viability assays were conducted by standard methods with slight modifications. Cells were seeded at 4000 cells per well for Caco-2 and 10,000 cells per well for CCD18-co and allowed to attach for 24 h. Test compounds dissolved in DMSO were diluted in EMEM to the specified concentration (with final DMSO concentration limited to 0.1%). Cells were incubated in the presence of the test compounds for 72 h, then the MTT solution (4 mg/mL, 10 μL) was added to each well and incubated for 4 h. Following media removal, DMSO (100 μL) was added to each well to dissolve the purple formazan crystals and the plates were incubated for an additional 30 minutes. Absorption at 560 nm was recorded and data were analyzed using logarithmic fits to obtain IC50 values. Each experiment was conducted in triplicate, and values are given as averages plus/minus standard deviation.

Caco-2 cells = assay: MTT cytotoxicity assay in Caco-2 cells; format: cell-based, human; conditions: for IC50: 72 h exposure, average ± SD of triplicate
Method: as §1, §2, §3

[3] = Aqueous solubility by UV-Vis absorption spectroscopy of saturated buffer solutions; format: physicochemical; conditions: 5.0 mM TRIS buffer, pH 7.40; average ± SD of triplicate
Method: Solubility measurements. The effect of the sugar motif on the aqueous solubility of the synthesized prochelators was investigated by UV-Visible absorption spectroscopy. Determination of molar extinction coefficients of each compound in aqueous buffer (5.0 mM TRIS, pH 7.40) allowed measurement of their concentration at saturation. Stock solutions were prepared in DMSO and diluted in TRIS buffer (5.0 mM, pH 7.40). Buffer solutions containing identical amounts of DMSO (0.3% v/v) were used to obtain blank spectra. […] For solubility measurements, saturated solutions were centrifuged for 20 minutes at 3,200 rpm to remove any precipitate and concentrations were determined by UV-Vis spectroscopy. […] Measurements were done in a set of triplicates.

glucose transporters [4] = assay: Competition assay of transporter-mediated uptake with 2-NBDG in Caco-2 cells (flow cytometry); format: cell-based, human; conditions: compound 50 μM; for Competition with 2-NBDG for transporter-mediated uptake: Caco-2 cells, 2-NBDG 100 μM, 40 min; for Competition with 2-NBDG (decrease in intracellular fluorescence): CACO-2 cells, 30 min, 2-NBDG 200 μM
Method: Co-treatment with glucose (10 mM) and glucose transporter (GLUT1) inhibitor phloretin (100 μM, 30 min) are employed as positive controls. Experiments were conducted in triplicate and values shown are averages±standard deviation. Statistical analysis: ** p<0.01, *** p<0.001 as compared to the control.
(§4) The competition assays used fluorescently labeled glucose bioprobe 2-(N-(7-nitrobenz-2-oxa-1,3-diazol-4-yl)amino)-2-deoxyglucose (2-NBDG). […] Without wishing to limit the present invention to any theory or mechanism, it is believed that the glycoconjugation may offer an advantageous increase in cancer cell specificity due to the conjugate being a substrate for the GLUT1 transporter protein and thus taking advantage of its overexpression in cancer cells as compared to normal cells.
Competition assay of transporter-mediated uptake. Caco-2 cells were plated at 1×10^6 cells per well in 6-well plates and allowed to adhere for 36 hours. Growth media were then removed and cells were incubated for 12 hours in glucose-free EMEM. […] As a positive control, after starvation cells were treated with 100 μM phloretin for 30 minutes, then treated with EMEM containing 100 μM 2-NBDG for 40 minutes. Cells were washed with PBS (1 mL) and detached by addition of Trypsin-EDTA (400 μL) and incubation for 3 minutes at 37° C. Following addition of EMEM (1 mL), the cell suspensions were centrifuged at 125 g for 10 minutes. The resulting pellets were suspended in PBS (0.5 mL) and transferred to a flow cytometry tube. Cells were stored on ice and analyzed by flow cytometry within 1 hour. Data are obtained as the average of three sets of geometric means of the flow cytometry histogram, and plotted as the percent difference from the control plus/minus the standard deviation between three values.

glucose transporters [5] = assay: Competition assay with 2-NBDG in MDA-MB-231 cells (flow cytometry); format: cell-based; conditions: compound 25-100 μM, 30 min, 2-NBDG 200 μM
Description: as §4

Structure (SMILES) | IC50 (CCD18-co cells) [µM] | IC50 (Caco-2 cells; MTT) [µM] | Competition with 2-NBDG for transporter-mediated uptake (glucose transporters [4]) | further results
S=C(N/N=C/c1ccccc1SSc1ccccc1/C=N/NC(=S)Nc1ccccc1)Nc1ccccc1 [(TC1S)2] | – | – | – | Timeframe of passive diffusion, activation and iron coordination (intracellular iron [1]): within minutes; Intracellular reduction/activation and formation of low-spin Fe(III) complex (intracellular iron [2]): direct evidence for both the reduction/activation
COC(=O)CCSSc1ccccc1C=NNC(=S)Nc1ccc(OC)cc1 [ATC4] | 27.5 ± 0.4 | 8.1 ± 0.2 | – | Times more toxic in Caco-2 cells than in CCD18-co cells (Caco-2 cells; MTT, 72 h): 3 times; Therapeutic Index (Caco-2 cells; ratio of IC50 in normal CCD18-co cells relative to malignant Caco-2 cells): 3.4 ± 0.1; Concentration at saturation [3]: 11 ± 1 μM and 4.7 ± 0.5 mg/L
COc1ccc(NC(=S)NN=Cc2ccccc2SSCCC(=O)OCC2OC(O)C(O)C(O)C2O)cc1 (stereo not shown) [Compound M6TC4] | 62.2 ± 0.1 | 10.1 ± 0.3 | competed successfully with 2-NBDG | –
COc1ccc(NC(=S)NN=Cc2ccccc2SSCCC(=O)NC2C(O)OC(CO)C(O)C2O)cc1 (stereo not shown) [GA2TC4] | 22.5 ± 0.8 | – | did not compete for uptake with 2-NBDG | –
O=C(CCSSc1ccccc1C=NNC(=S)Nc1ccccc1)OCC1OC(O)C(O)C(O)C1O (stereo not shown) [Compound G6TC1] | – | – | – | Competition with 2-NBDG (decrease in intracellular fluorescence) (glucose transporters [4]): better competitors of 2-NBDG; also recorded: over three times the decrease due to G2TC1
COc1ccc(NC(=S)NN=Cc2ccccc2SSc2ccccc2C=NNC(=S)Nc2ccc(OC)cc2)cc1 [(TC4-S)2] | – | – | – | Concentration at saturation [3]: <5 μM and <3 mg/L
O=C(CCSSc1ccccc1C=NNC(=S)Nc1ccccc1)OCC1OC(O)C(O)C(O)C1O (stereo not shown) [Compound M6TC1] | – | – | – | Competition with 2-NBDG (decrease in intracellular fluorescence) (glucose transporters [4]): better competitors of 2-NBDG
O=C(CCSSc1ccccc1C=NNC(=S)Nc1ccccc1)NC1C(O)OC(CO)C(O)C1O (stereo not shown) [Compound G2TC1] | – | – | – | Uptake of 2-NBDG in the presence of compound (glucose transporters [5]): decreased uptake of the fluorescent glycoconjugate
COc1ccc(NC(=S)NN=Cc2ccccc2SSCCC(=O)OCC2OC(O)C(O)C(O)C2O)cc1 (stereo not shown) [Compound G6TC4] | 76 ± 2 | 6.9 ± 0.4 | competes strongly with 2-NBDG for uptake; also recorded: competes aggressively with fluorescent glycoconjugate 2-NBDG | –
